Entries after “also recorded” stand apart in the source; their conditions may differ. [ ]: non-standard residue; d: D form. The star is where a group is joined. Benzoyl(4-F) = O=C(c1ccc(F)cc1)*; Cit = NC(=O)NCCC[C@H](N)C(=O)O
Tests used:
[1] = tested on: immune cells including immature stem/progenitor cells, T cells and NK cells; experiment: in-vivo administration, mobilization of immune and stem/progenitor cells; conditions: to the peripheral blood
[2] = in vivo
[3] = molecular target: CXCR4 receptor (Homo sapiens, UniProt P61073); conditions: cited from earlier work
Sequence of CXCR4 receptor (P61073 whole entry): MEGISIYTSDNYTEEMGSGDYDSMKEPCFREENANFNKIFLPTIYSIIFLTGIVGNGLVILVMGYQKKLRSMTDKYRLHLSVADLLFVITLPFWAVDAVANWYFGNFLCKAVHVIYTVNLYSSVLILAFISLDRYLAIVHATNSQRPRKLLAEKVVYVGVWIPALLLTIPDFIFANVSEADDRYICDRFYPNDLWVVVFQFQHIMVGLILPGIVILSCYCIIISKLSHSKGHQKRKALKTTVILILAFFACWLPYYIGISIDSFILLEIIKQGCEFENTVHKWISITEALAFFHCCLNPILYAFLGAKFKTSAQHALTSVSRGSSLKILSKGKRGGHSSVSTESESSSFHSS

[4] = tested on: long term repopulating stem cells; conditions: mice, single BL-8040 injection; cited from earlier work
[5] = tested on: CD34+ hematopoietic stem/progenitor cells (HSPC); conditions: multiple myeloma patients, combined treatment of BL-8040 and G-CSF, single aphaeresis procedure; cited from earlier work
[6] = tested on: myeloid leukemia, hematopoietic tumors and non-small cell lung cancer; conditions: cited from earlier work
[7] = tested on: immune cells including immature stem/progenitor cells, T cells and NK cells; conditions: "It has been shown"; cited from earlier work

Question: Which results are given for “4F-benzoyl-Arg-Arg-Nal-Cys-Tyr-Cit-Lys-DLys-Pro-Tyr-Arg-Cit-Cys-Arg-NH2 ({Benzoyl(4-F)}-RR[Nal]CY[Cit]K[dK]PYR[Cit]CR-NH2; cysteine pairing not given here) [BL-8040]”?
Answer: mobilization of immune cells [1]: induces rapid mobilization of a variety of immune cells including immature stem/progenitor cells as well as fully differentiated T cells and NK cells; also recorded: induce rapid mobilization of hematopoietic stem/progenitor cells and mesenchymal stem cells as well as T cells, B cells, NK cells, NKT cells and ImDC to the peripheral blood; safety and tolerability [2]: safe and well tolerated; receptor occupancy ([3]; CXCR4 receptor): long receptor occupancy; affinity of binding to the CXCR4 receptor [3]: high affinity; mobilization of long term repopulating stem cells [4]: mobilized long term repopulating stem cells sufficient for transplantation; collection of CD34+ hematopoietic stem/progenitor cells (HSPC) [5]: enabled the collection of high number of CD34+ hematopoietic stem/progenitor cells (HSPC) in a single aphaeresis procedure; toxicity against tumors [6]: toxic against several tumors such as myeloid leukemia, hematopoietic tumors and non-small cell lung cancer; mobilization of CD34+ hematopoietic stem/progenitor cells (HSPC) [7]: induces mobilization of CD34+ hematopoietic stem/progenitor cells (HSPC) that can be further used for transplantation

Reference: US10786547B2, “Compositions, articles of manufacture and methods for treating cancer” (Biokine Therapeutics Ltd., priority 2015, dated 2020)
